Experimental data taken from article PMC8037310, “Thrombin-Derived Peptides Potentiate the Activity of Gram-Positive-Specific Antibiotics against Gram-Negative Bacteria” (Molecules, 2021).
≈ marks a conversion by molar mass, not a printed value. Like-named read-outs stand apart in the source and are kept apart here. Peptide text beside a SMILES is read from it.

Experiments:
[1] = tested on: E. coli EQASmcr-2 (EQAS 2016 KP37); assay type: cell-based, Escherichia coli; settings: for MICpeptide: peptide alone; for MICpeptide / MSCpeptide / MSCrif: E. coli EQASmcr-2; for MSCpeptide: peptide concentration in the combination with rifampicin giving the lowest FICi; for MSCrif: rifampicin concentration in the combination giving the lowest FICi
[2] = tested on: E. coli EQASmcr-3 (EQAS 2017 2013-SQ352); assay type: cell-based, Escherichia coli; settings: for MICpeptide: peptide alone; for MICpeptide / MSCpeptide / MSCrif: E. coli EQASmcr-3; for MSCpeptide: peptide concentration in the combination with rifampicin giving the lowest FICi; for MSCrif: rifampicin concentration in the combination giving the lowest FICi
E. coli BW25113 [3] = assay type: cell-based, Escherichia coli; settings: for FICi: BW25113, 20 h; for MICpep: synergist alone, E. coli BW25113, from checkerboard with rifampicin; for MSCpep: synergist concentration in the combination with rifampicin giving the lowest FICi
K. pneumoniae ATCC13883 = assay: Checkerboard assay with rifampicin; assay type: cell-based, Klebsiella pneumoniae; settings: K. pneumoniae ATCC13883; for MICpeptide: peptide alone; for MSCpeptide: peptide concentration in the combination with rifampicin giving the lowest FICi; for MSCrif: rifampicin concentration in the combination giving the lowest FICi
Description: All peptides were screened for antimicrobial activity against E. coli BW25113, E. coli ATCC25922, and E. coli W3110. A select group of the peptides was further tested against E. coli mcr-1, E. coli EQASmcr-1 (EQAS 2016 412016126), E. coli EQASmcr-2 (EQAS 2016 KP37), E. coli EQASmcr-3 (EQAS 2017 2013-SQ352), K. pneumoniae ATCC13883, P. aeruginosa ATCC27853, and A. baumannii ATCC17978. The antimicrobial assay was performed according to CLSI guidelines. Bacteria were plated out directly from their glycerol stocks on blood agar plates, incubated overnight at 37 °C, and then kept in the fridge. The blood agar plates were only used for 2 weeks and then replaced.
(§1) One colony from a blood agar plates was inoculated in Lysogeny Broth (LB) at 37 °C until a 0.5 optical density at 600 nm (OD600) was reached (compared to the sterility control of LB). The bacterial suspension was diluted in fresh LB to 2.0 × 10^6 CFU/mL. The serial dilutions were prepared in polypropylene microtiter plates: a stock of the test compounds was prepared with a 2x final concentration in LB. Moreover, 100 µL of the stock was added to the wells of the top row of which 50 µL was used for the serial dilution. The bottom row of each plate was used as the positive (50 µL of LB) and negative controls (100 µL of LB) (6 wells each). Furthermore, 50 µL of the 2.0 × 10^6 CFU/mL bacterial stock was added to each well except for the negative controls, adding up to a total volume of 100 µL per well. The plates were sealed with a breathable seal and incubated for 20 h at 37 °C and 600 rpm.
Two 96-well plates were required per compound. A serial dilution of the compound was performed on two plates from row A–G using with LB as medium. Row H was filled with 25 µL medium. On a separate plate a negative control (8 wells, 100 μL medium) was prepared. For all concentrations of antibiotic a specific stock was prepared. 25 µL medium was added to the 0 µg/mL antibiotic columns (plate I, column 1–3). Of each antibiotic stock 25 µL was added to three columns to obtain triplicates for every condition. Both plates contained 50 µL in each well to which 50 µL bacterial stock was added (see the protocol of the MIC assays) and the plates were sealed. After incubation for 20 h at 37 °C while shaking, the breathable seals were removed and the density of the bacterial suspensions measured at 600 nm (OD600) using a Tecan Spark plate reader. The OD600 values were transformed to a 2D gradient with the negative control as minimum and the positive control (wells G1, G2, and G3) as maximum in excel. The FICi was calculated using Equation (1) with a FICi ≤ 0.5 indicating synergy. FICi = (MSCa/MICa) + (MSCb/MICb),(1)
Calculation of the FICi: MSCa = concentration of the […] in combination with the antibiotic that results in the lowest FICi. MICa = MIC of the antibiotic without synergist (row G). MSCb = concentration of the synergist in combination with the antibiotic that results in the lowest FICi. MICb = MIC of the synergist itself (Column 1–3, plate I).

E. coli BW25113 [4] = assay: LPS competition assay; assay type: cell-based, Escherichia coli; settings: E. coli BW25113, LB, 20 h 37 °C, visual read-out
Description: as §1
The same protocol as the MIC assay was used to prepare the serial dilution of the compounds in 96-wells plates in duplicate resulting in two identical plates. A serial dilution of colistin was taken along as a control. The inoculation and preparation of the bacteria stock was performed as described for the MIC assay. The stock of bacteria was then split into two stocks. […] The normal bacteria stock was added to the remaining plate as described in the MIC assay.

[5] = EQASmcr-2 (EQAS 2016 KP37, 20 h)
[6] = EQASmcr-3 (EQAS 2017 2013-SQ352, 20 h)

| Structure (SMILES) | FICi [1, 5] | MICpeptide [1] [µg/mL] | MSCpeptide [1] [µg/mL] | MSCrif [1] [µg/mL] | FICi [2, 6] | MICpeptide [2] [µg/mL] | MSCpeptide [2] [µg/mL] | MSCrif [2] [µg/mL] | FICi (E. coli BW25113 [3]) | MICpep (E. coli BW25113 [3]) [µg/mL] | MSCpep (E. coli BW25113 [3]; E. coli BW25113) [µg/mL] | MICpeptide (K. pneumoniae ATCC13883) [µg/mL] | MSCpeptide (K. pneumoniae ATCC13883) [µg/mL] | MSCrif (K. pneumoniae ATCC13883) [µg/mL] | FICi ([2]; with rifampicin vs E. coli EQASmcr-3) | MSCrif (E. coli BW25113 [3]; rifampicin concentration in the combination giving the lowest FICi, E. coli BW25113) [µg/mL] | MIC + 1.0 mg/ml LPS (E. coli BW25113 [4]; in the presence of 1 mg/mL LPS) [mg/L] | MIC (E. coli BW25113 [4]; without LPS) [mg/L] | FICi ([1]; with rifampicin vs E. coli EQASmcr-2) |
| --- | --- | --- | --- | --- | --- | --- | --- | --- | --- | --- | --- | --- | --- | --- | --- | --- | --- | --- | --- |
| CC[C@H](C)[C@H](NC(=O)[C@@H](NC(=O)[C@H](CCCCN)NC(=O)[C@H](CCC(N)=O)NC(=O)[C@@H](NC(=O)[C@H](C)NC(=O)[C@H](CCCCN)NC(=O)[C@H](CCCCN)NC(=O)[C@H](CC(C)C)NC(=O)[C@H](CCCNC(=N)N)NC(=O)[C@H](Cc1ccccc1)NC(=O)[C@@H](N)C(C)C)[C@@H](C)CC)C(C)C)C(N)=O [peptide 14] (H-VFRLKKAIQKVI-NH2) | 0.0938 | > 200 | 25 | 0.25 | 0.0469 | > 200 | 12.5 | 0.125 | 0.1406 | > 200 | 50 | > 200 | 6.25 | 0.25 |  |  |  |  |  |
| CC[C@H](C)[C@H](NC(=O)[C@@H](NC(=O)[C@H](CCCCN)NC(=O)[C@H](CCC(N)=O)NC(=O)[C@@H](NC(=O)[C@H](Cc1c[nH]c2ccccc12)NC(=O)[C@H](CCCCN)NC(=O)[C@H](CCCCN)NC(=O)[C@H](CC(C)C)NC(=O)[C@H](C)NC(=O)[C@H](Cc1ccccc1)NC(=O)[C@@H](N)C(C)C)[C@@H](C)CC)C(C)C)C(N)=O [peptide 10] (H-VFALKKWIQKVI-NH2) | 0.1406 | 100 | 12.5 | 0.125 |  | 200 | 12.5 | 0.125 |  | 100 | 12.5 | > 200 | 12.5 | 1 | 0.0781 |  |  |  |  |
| CC[C@H](C)[C@H](NC(=O)[C@@H](NC(=O)[C@H](CCCCN)NC(=O)[C@H](CCC(N)=O)NC(=O)[C@@H](NC(=O)[C@H](Cc1c[nH]c2ccccc12)NC(=O)[C@H](CCCCN)NC(=O)[C@H](CCCCN)NC(=O)[C@H](CC(C)C)NC(=O)[C@H](CCCNC(=N)N)NC(=O)[C@H](Cc1ccccc1)NC(=O)[C@@H](N)C(C)C)[C@@H](C)CC)C(C)C)C(N)=O [peptide 6] (H-VFRLKKWIQKVI-NH2) | 0.0938 | 100 | 6.25 | 0.25 | 0.0781 | 50 | 3.125 | 0.125 | 0.1563 | 25 | 3.125 | 100 | 3.125 | 1 |  | 0.25 | 200 | 12.5 (≈ 8.03 µM) |  |
| CC[C@H](C)[C@H](NC(=O)[C@H](Cc1c[nH]c2ccccc12)NC(=O)[C@H](CCCCN)NC(=O)[C@H](CCCCN)NC(=O)[C@H](CC(C)C)NC(=O)[C@H](CCCNC(=N)N)NC(=O)[C@H](Cc1ccccc1)NC(=O)[C@@H](N)C(C)C)C(=O)N[C@@H](CCC(N)=O)C(=O)N[C@@H](CCCCN)C(=O)N[C@H](C(=O)N[C@@H](C)C(N)=O)C(C)C [peptide 19] (H-VFRLKKWIQKVA-NH2) |  | 200 | 12.5 | 0.5 |  | > 200 | 6.25 | 0.125 | 0.0781 | 100 | 6.25 | > 200 | 6.25 | 0.25 |  |  |  |  | 0.1250 |
